Reference: US20220085295A1, “Novel Compound and Organic Light Emitting Device Comprising the Same” (LG Chem, Ltd., priority 2019, published 2022)

Test: Solubility experiment in toluene
Type: physicochemical
Conditions: in toluene at room temperature/normal pressure

Compound	Solubility (wt %)
CC(C)(C)c1ccc(N(c2ccc(C(C)(C)C)cc2)c2ccc(C3(c4ccc(C(C)(C)C)cc4)c4cc(N(c5ccccc5)c5ccc(C(C)(C)C)cc5)ccc4-c4c3cc(N(c3ccccc3)c3ccc(C(C)(C)C)cc3)c3oc5ccccc5c43)cc2)cc1 (stereo not shown) [Compound 1]	4.5
CC(C)(C)c1ccc(N(c2ccc(C(C)(C)C)cc2)c2ccc(C3(c4ccc(C(C)(C)C)cc4)c4cc(N(c5ccc(C(C)(C)C)cc5)c5cccc6c5oc5ccccc56)ccc4-c4c3cc(N(c3ccc(C(C)(C)C)cc3)c3cccc5c3oc3ccccc35)c3oc5ccccc5c43)cc2)cc1 (stereo not shown) [Compound 2]	4.7
CC(C)(C)c1ccc(N(c2ccc(C(C)(C)C)cc2)c2ccc(C3(c4ccc(C(C)(C)C)cc4)c4cc(N(c5ccccc5)c5ccc(C(C)(C)C)cc5)ccc4-c4c3cc(N(c3ccccc3)c3ccc(C(C)(C)C)cc3)c3c4-c4ccccc4C3(C)C)cc2)cc1 (stereo not shown) [Compound 3]	5.8
CC(C)(C)c1ccc(N(c2ccc(C(C)(C)C)cc2)c2ccc(C3(c4ccc(C(C)(C)C)cc4)c4cc(N(c5ccc(C(C)(C)C)cc5)c5cccc6c5oc5ccccc56)ccc4-c4c3cc(N(c3ccc(C(C)(C)C)cc3)c3cccc5c3oc3ccccc35)c3c4-c4ccccc4C3(C)C)cc2)cc1 (stereo not shown) [Compound 4]	5.5
CC(C)(C)c1ccc(N(c2ccc(C(C)(C)C)cc2)c2ccc(C3(c4ccc(C(C)(C)C)cc4)c4cc(N(c5ccccc5)c5ccc(C(C)(C)C)cc5)c5c(oc6ccccc65)c4-c4c3cc(N(c3ccccc3)c3ccc(C(C)(C)C)cc3)c3oc5ccccc5c43)cc2)cc1 (stereo not shown) [Compound 5]	3.9
CC(C)(C)c1ccc(N(c2ccc(C(C)(C)C)cc2)c2ccc(C3(c4ccc(C(C)(C)C)cc4)c4cc(N(c5ccc(C(C)(C)C)cc5)c5cccc6c5oc5ccccc56)c5c(oc6ccccc65)c4-c4c3cc(N(c3ccc(C(C)(C)C)cc3)c3cccc5c3oc3ccccc35)c3oc5ccccc5c43)cc2)cc1 (stereo not shown) [Compound 6]	4.1
CC(C)(C)c1ccc(Oc2ccc(C3(c4ccc(C(C)(C)C)cc4)c4cc(N(c5ccccc5)c5ccc(C(C)(C)C)cc5)c5c(oc6ccccc65)c4-c4c3cc(N(c3ccccc3)c3ccc(C(C)(C)C)cc3)c3oc5ccccc5c43)cc2)cc1 (stereo not shown) [Compound 7]	3.8
CC(C)(C)c1ccc(Sc2ccc(C3(c4ccc(C(C)(C)C)cc4)c4cc(N(c5ccccc5)c5ccc(C(C)(C)C)cc5)c5c(oc6ccccc65)c4-c4c3cc(N(c3ccccc3)c3ccc(C(C)(C)C)cc3)c3oc5ccccc5c43)cc2)cc1 (stereo not shown) [Compound 8]	3.9
Cc1ccc(C)c(C2(c3ccc([Si](C)(C)C)cc3)c3cc(N(c4ccccc4)c4ccc(C(C)(C)C)cc4)c4c(oc5ccccc54)c3-c3c2cc(N(c2ccccc2)c2ccc(C(C)(C)C)cc2)c2oc4ccccc4c32)c1 (stereo not shown) [Compound 9]	3.4
CC(C)(C)c1ccc(N(c2ccccc2)c2ccc3c(c2)C2(c4ccccc4-c4ccccc42)c2cc(N(c4ccccc4)c4ccc(C(C)(C)C)cc4)c4c(oc5ccccc54)c2-3)cc1 [Compound BD, reference compound]	2.0
